Measurements from US7667052B2 (Eisai R&D Management Co., Ltd., priority 2003, dated 2010).
In brackets after ≈: the same amount, converted by molar mass.

Columns and labels:
[1] = tested on: VEGF production in WiDr human colon cancer cell; experiment: VEGF production suppressing action in various carcinoma cells, ELISA; assay type: cell-based; settings: low oxygen 18 hours
Protocol: (§1) WiDr human colon cancer cell, PC3 human prostate cancer cell, DU145 human […] cancer cell and HT1080 human […] cancer cell, which were cultured in DULBECCO-modified eagle medium (manufactured by DMEM SIGMA Co., Ltd.) containing 10% fetal calf serum, penicillin (100 unit/ml) and streptomycin (100 μg/ml) were dispensed in 96 well plates by 3×10^4 cells/well. After culturing at 37° C. overnight in a CO2 incubator (5% CO2), the media were removed, and 180 μl of the above-mentioned incubation solution was charged. After adding 20 μL of the above-mentioned incubation solution containing the test compound diluted with 3-fold succession, they were incubated in a low oxygen ([…]) incubator for 18 hours. The supernatants thereof were measured by an ELISA kit (Immunobiology Research Institute).
(§2) Concentration at which the amount of VEGF expressed by low oxygen stimulation was suppressed to 50% (IC50 value) was determined and results are shown in Table 10.

[2] = tested on: VEGF production in PC3 human prostate cancer cell; experiment: as above; assay type: cell-based; settings: PC 3, low oxygen 18 hours
Protocol: as §1, §2

[3] = tested on: VEGF production in DU145 human colon cancer cell; experiment: as above; assay type: cell-based; settings: DU-145, low oxygen 18 hours
Protocol: as §1, §2

[4] = tested on: VEGF production in HT1080; experiment: as above; assay type: cell-based; settings: Homo sapiens; HT 1080, low oxygen 18 hours
Protocol: as §1, §2

[5] = tested on: VEGF production in U251 human glioma cell; experiment: VEGF production suppressing action under low oxygen, ELISA; assay type: cell-based; settings: U251, low oxygen stimulation
Protocol: U251 human glioma cell cultured in DULBECCO-modified eagle medium (DMEM; manufactured by SIGMA Co., Ltd.) containing 10% fetal calf serum, penicillin (100 unit/ml) and streptomycin (100 μg/ml) was dispensed in 96-well plates by 4×10^4 cells/well. After culturing at 37° C. overnight in a CO2 incubator (5% CO2), the media were removed, and 180 μl of the above-mentioned incubation solution was charged. After adding 20 μL of the above-mentioned incubation solution containing the test compound diluted with 3-fold succession, they were incubated in a low oxygen (2% O2) incubator for 18 hours. The supernatants thereof were measured by an ELISA kit (Immunobiology Research Institute).
Concentration at which the amount of VEGF expressed by low oxygen stimulation was suppressed to 50% (IC50 value) was determined and results are shown in Table 9. […] The activities of 11107F and 11107G were very weak.

[6] = tested on: human breast cancer BSY-1 cell; experiment: Solid cancer proliferation suppressing action, subcutaneous transplant; assay type: in vivo, mice; settings: single administration, 10 mg/kg intravenous
Protocol: In order to study solid cancer proliferation suppressing action of 11107B in vivo, human breast cancer BSY-1 cell was transplanted to the subcutaneous body sides of mice. The animals were grouped so that the average of the volumes of the respective groups became uniform, when it reached about 100 mm^3. Control group was made as 10 mice and 11107B-administering groups were made as 5 mice. 11107B was administrated for the 11107B-administering groups once by intravenous injection so as to be 10 mg/kg, and a vehicle was administered to the control group. The tumor volumes on the fifth day, eighth day, 12th day and 15th day were measured, and relative tumor volumes were determined setting the tumor volume at the initiation of administration as 1.

For CCC(O)C(C)C1OC1CC(C)/C=C/C=C(\C)C1OC(=O)CC(O)CCC(C)(O)C(OC(C)=O)/C=C/C1C (stereo not drawn) [11107B], the IC50 [1] was 0.65 ng/mL (≈ 1.21 nM), the IC50 [2] was 0.71 ng/mL (≈ 1.32 nM) and the IC50 [3] was 1.05 ng/mL (≈ 1.96 nM). The IC50 [4] was 1.89 ng/mL (≈ 3.52 nM), the “VEGF production suppression, in words” value [5] was “suppressed most strongly VEGF production” and the “solid tumor suppression, in words” value [6] was “showed the effect of suppressing solid tumor”.
